Data published in patent EP2818471A1, “Nitrogen bicyclic compounds as inhibitors for Scyl1 and Grk5” (Max-Planck-Gesellschaft zur Förderung der Wissenschaften …, priority 2013, dated 2014).

Assays:
beta-TC6 cells [1] = assay: Insulin release in high glucose medium, rat/mouse insulin ELISA; type: cell-based; conditions: Mus musculus, Beta-TC6, 2 h, high glucose (4.5 g/L) DMEM, Example 9, Figure 6, ± SEM, read-out: increase of insulin release
Experimental: Cells were cultured overnight, washed with PBS and then treated with 5 µM of test compounds as well as non-inhibitor controls for 2 h in a high glucose (4.5 g/L) DMEM at 37°C and 5 % (v/v) CO2. Release of insulin was detected using a rat/mouse insulin ELISA.
(§1) After incubation, the supernatant of the beta-TC6 insulinoma cells was diluted 1:20, whereas the supernatants of the RIN-T2B-5AH were diluted 1:10. The insulin release was measured with rat/mouse insulin ELISA (Merck Millipore Darmstadt, Cat. # EZRMI-13K) by following the manufacture's protocol. The enzyme activity of the horseradish peroxidase of the immobilized biotinylated antibodies was monitored spectrophotometrically by the increased absorbency at 490 nm, and corrected by the absorbency at 610 nm.
Afterwards, the supernatant was analyzed for insulin using the rat/mouse insulin ELISA (Merck Millipore Darmstadt, Cat. # EZRMI-13K) by following the manufacture's protocol..
Cells were treated for 2 h in a high glucose (4.5 g/L) DMEM media at 37°C and 5 % (v/v) CO2. Insulin release was analyzed using the rat/mouse insulin ELISA.

beta-TC6 cell system = assay: Comparison of insulin release with commercially available inhibitors, mouse/rat insulin ELISA; type: cell-based; conditions: 2 h; for effect on insulin release: concentration not given
Experimental: Based on literature references, several commercially available inhibitors were compared with compounds according to the invention. […] Cells were cultured for 24 h before treated with the inventive compounds and control inhibitors for 2 h at 37 °C and 5 % (v/v) CO2. Insulin in the supernatant was detected by mouse/rat insulin ELISA.

beta-TC6 cells [2] = assay: Insulin release in low glucose medium, rat/mouse insulin ELISA; type: cell-based; conditions: low glucose 1.125 mM (20 mg/dL), 2 h, relative to DMSO control; Example 6, Figure 5
Experimental: as §1, with “In order to measure the insulin released upon compound treatment beta-TC6 insulinoma (mouse) and RIN-T2B-5AH (rat islet tumor subclone) cells were washed and incubated for 2 h in high (4.5 g/L) or low (1.125 g/L) glucose media at 37 °C. After” for “After”
Hypoglycemia can cause impairment of cognitive function, motoric control or even consciousness. […] Therefore, we verified the glucose dependent insulin release in beta-TC6 cells using media with 1.125 mM (20 mg/dL) glucose. Cells were cultured for 24 h in a 96-well plate, washed with PBS and then appropriate media was replaced for 2 h at 37°C and 5 % (v/v) CO2. […] The enzyme activity of the horseradish peroxidase of the immobilized biotinylated antibodies was monitored spectrophotometrically by the increased absorbency at 490 nm, and corrected by the absorbency at 610 nm. […]

beta-TC6 = assay: MTT cytotoxicity assay (cell viability and proliferation); type: cell-based, mouse; conditions: beta-TC6, 72 h treatment, concentrations up to 10 µM
Experimental: Using a MTT approach, we determined the effect on cell viability and proliferation of beta-TC6 and C2C12 cells to display potential cytotoxicity of the compounds according to the invention in vitro after a 72 h treatment.
For MTT (3-(4,5-dimethylthiazol-2-yl)-2,5-diphenyl tetrazolium bromide) transformation, 1/5 of total volume of a 5 mg/mL MTT stock solution was added to the cells as well as control wells and incubated at 37 °C, 5 % CO2 (v/v) for 1 h. Then 1/2 of total volume of MTT-stop solution was added and plates were incubated overnight in the dark at 25 °C. The optical density (OD) was measured using a multiwell spectrophotometer at a wavelength of 570 nm.

C2C12 cells = assay: 2-NBDG glucose uptake by flow cytometry; conditions: C2C12, 1 h compound treatment; Figure 10
Experimental: Furthermore, as internal controls, samples of glucose free media, respectively glucose free media with test compound, were tested. Subsequently, cells were washed, trypsinized and harvested in ice-cold PBS before centrifuged at 1.6 x10^3 rpm at 4°C. Cells were analyzed by flow cytometry (FACS Calibur, BD Bioscience, respectively a BD Accuri® C6 Flow Cytometer).
To investigate the impact of the Grk5 inhibitors on Glucose uptake, cells were cultured 1 h in glucose free media supplied with 100 µM 2-NBDG at 37 °C and 5 % (v/v) CO2. Furthermore, as internal controls, samples of glucose free media, respectively glucose free media with test compounds, were measured. Fluorescence was analyzed by flow cytometer (FACS Calibur, BD Bioscience, respectively a BD Accuri® C6 Flow Cytometer).

beta-TC6 cells [3] = assay: Insulin HTRF assay, relative activity Ar normalized to sunitinib; type: cell-based; conditions: Mus musculus, normalized to positive control sunitinib (5 µM = 100%), Table 10
Outline: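 Relative activity Ar was scaled between 0% and 100% controls, with sunitinib at 5 µM f.c. as reference. Insulin released by beta-TC6 cells was quantified by sandwich HTRF (Eu-cryptate/XL665 antibodies, 120 min RT). Cells had been seeded 24 or 48 h, then treated 2–4 h at 37°C in induction buffer, 0.5% DMSO.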

[4] = Mus musculus, Beta-TC6, 5µM, DMSO = 0, Table 9

**Q.** `CC(=O)Nc1cc(-c2cccc(C(=O)NCCO)c2)cn2c(-c3ccc(F)cc3)cnc12` [Cpd c1, reference compound] was tested. Which activation at 5 µM (beta-TC6 cells [1]) did it give?
**A.** 1.3 ± 0.3%

**Q.** For `COc1ccc(Cl)cc1C(=O)NCCc1ccc(S(=O)(=O)NC(=O)NC2CCCCC2)cc1` [Glibenclamide, reference compound], which “effect on insulin release” value (beta-TC6 cell system) is on record?
**A.** no effect

**Q.** For `O=C1C(Cl)=C(N2C(=O)CCC2=O)C(=O)c2ccccc21` [MEK, reference compound], which activation at 10 µM (beta-TC6 cell system; Mus musculus, Beta-TC6, 10µM, DMSO = 0, Table 9) is on record?
**A.** 67.3%

**Q.** For `CCN(CC)CCNC(=O)c1c(C)[nH]c(/C=C2\C(=O)Nc3ccc(F)cc32)c1C` [Sunitinib, reference compound], which “Insulin Release [%]” value (beta-TC6 cell system; 5µM, DMSO = 0, Table 9, listed as Sutent) is on record?
**A.** 93.35%

**Q.** What about the activation at 5 µM (beta-TC6 cell system; [4]) of the same compound?
**A.** 93.3 ± 14.4%

**Q.** And the insulin release (beta-TC6 cells [2])?
**A.** 0.77 ± 0.03

**Q.** What about the toxic effect (beta-TC6) of the same compound?
**A.** toxic in lower concentrations

**Q.** Which “effect on insulin release” value (beta-TC6 cell system) does the source give for `CCCCNC(=O)NS(=O)(=O)c1ccc(C)cc1` [Tolbutamide, reference compound] here?
**A.** no effect

**Q.** Which activation at 5 µM (beta-TC6 cell system; [4]) does the source give for `NC(=O)c1ccc(-c2cnc3ccc(Cc4ccccc4)nn23)cc1` [compound 2, 4-(6-benzylimidazo[1,2-b]pyridazin-3-yl)benzamide] here?
**A.** 65.7%

**Q.** And the “uptake of 2-NBDG compared with negative control background” value (C2C12 cells)?
**A.** significantly increased uptake of 2-NBDG

**Q.** And the Emax (beta-TC6 cells [3])?
**A.** 20 to 50%

**Q.** `Cn1cc(-c2cnc3cnc(-c4cc5ccccc5s4)cn23)cn1` [compound 439, 6-(benzothiophen-2-yl)-3-(1-methylpyrazol-4-yl)imidazo[1,2-a]pyrazine] was tested. Which Emax (beta-TC6 cells [3]) did it give?
**A.** 20 to 50%

**Q.** How did the Emax (beta-TC6 cells [3]) turn out when `COc1cc(-c2cn3c(-c4ccc5ncccc5c4)cnc3cn2)cc(OC)c1OC` [compound 440, 6-[6-(3,4,5-trimethoxyphenyl)imidazo[1,2-a]pyrazin-3-yl]quinoline] was run?
**A.** 20 to 50%

**Q.** With `COc1cc(-c2cn3c(-c4ccc5ncccc5c4)cnc3cn2)ccc1O` [compound 441, 2-methoxy-4-[3-(6-quinolyl)imidazo[1,2-a]pyrazin-6-yl]phenol] as the compound, how does the Emax (beta-TC6 cells [3]) read?
**A.** 20 to 50%

**Q.** For `Cc1cc(-c2cn3c(-c4ccc5ncccc5c4)cnc3cn2)cc(C)c1O` [compound 442, 2,6-dimethyl-4-[3-(6-quinolyl)imidazo[1,2-a]pyrazin-6-yl]phenol], which Emax (beta-TC6 cells [3]) is on record?
**A.** 20 to 50%

**Q.** How did the Emax (beta-TC6 cells [3]) turn out when `Cn1ccc2cc(-c3cn4c(-c5ccc6ncccc6c5)cnc4cn3)ccc21` [compound 443, 6-[6-(1-methylindol-5-yl)imidazo[1,2-a]pyrazin-3-yl]quinoline] was run?
**A.** ≥ 100%

**Q.** `CS(=O)(=O)Nc1cccc(-c2cn3c(-c4ccc5ncccc5c4)cnc3cn2)c1` [compound 444, N-[3-[3-(6-quinolyl)imidazo[1,2-a]pyrazin-6-yl]phenyl]methanesulfonamide] was tested. Which Emax (beta-TC6 cells [3]) did it give?
**A.** 20 to 50%
